Source: patent publication US20260376293A1, “METHODS FOR STUDYING GPR158 PHARMACOLOGY AND IDENTIFICATION OF ITS LIGANDS” (UNIVERSITY OF FLORIDA RESEARCH FOUNDATION, INCORPORATED, priority 2022, published 2026)

Target: T1, GPR158 (Homo sapiens, UniProt Q5T848)
T1 sequence (Q5T848 24-1215): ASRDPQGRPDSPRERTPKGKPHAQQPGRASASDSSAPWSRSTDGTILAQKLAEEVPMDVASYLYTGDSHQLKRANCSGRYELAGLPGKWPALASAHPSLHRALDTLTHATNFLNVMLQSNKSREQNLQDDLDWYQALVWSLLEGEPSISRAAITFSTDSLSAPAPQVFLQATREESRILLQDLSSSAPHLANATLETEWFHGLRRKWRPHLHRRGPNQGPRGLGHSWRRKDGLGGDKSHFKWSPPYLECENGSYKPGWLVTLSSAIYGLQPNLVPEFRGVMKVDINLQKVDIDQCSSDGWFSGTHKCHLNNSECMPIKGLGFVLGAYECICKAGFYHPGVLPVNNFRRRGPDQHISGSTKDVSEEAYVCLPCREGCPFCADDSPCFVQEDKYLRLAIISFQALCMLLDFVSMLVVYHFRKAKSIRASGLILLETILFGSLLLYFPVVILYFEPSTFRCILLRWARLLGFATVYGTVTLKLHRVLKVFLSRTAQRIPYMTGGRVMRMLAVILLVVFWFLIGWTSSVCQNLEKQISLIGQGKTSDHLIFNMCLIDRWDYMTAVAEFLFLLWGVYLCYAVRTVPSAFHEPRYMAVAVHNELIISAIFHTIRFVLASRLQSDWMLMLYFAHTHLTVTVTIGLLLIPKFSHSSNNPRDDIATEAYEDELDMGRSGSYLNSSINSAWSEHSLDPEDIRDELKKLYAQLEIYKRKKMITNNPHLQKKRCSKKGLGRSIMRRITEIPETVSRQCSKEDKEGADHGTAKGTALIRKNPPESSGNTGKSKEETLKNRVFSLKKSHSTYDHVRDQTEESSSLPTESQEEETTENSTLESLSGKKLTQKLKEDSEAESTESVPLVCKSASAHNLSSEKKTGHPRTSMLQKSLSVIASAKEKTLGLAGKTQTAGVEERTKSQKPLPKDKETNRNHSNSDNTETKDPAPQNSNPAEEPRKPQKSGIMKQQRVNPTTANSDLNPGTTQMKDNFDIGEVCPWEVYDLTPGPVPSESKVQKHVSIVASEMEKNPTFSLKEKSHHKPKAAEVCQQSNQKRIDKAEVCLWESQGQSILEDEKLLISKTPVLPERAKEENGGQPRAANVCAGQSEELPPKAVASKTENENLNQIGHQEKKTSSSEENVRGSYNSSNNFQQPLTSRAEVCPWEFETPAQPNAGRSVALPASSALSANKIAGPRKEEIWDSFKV
Assay: BRET β-arrestin recruitment assay
Assay type: cell-based
Parameters: expressed in transfected cells; host or cells: HEK293 (HEK293FT in the BRET methods)
Details: yPET-β-arrestin-2, HEK293 cells
Excerpt: FIGS. 6A-6B. Effect of glycine on GPR158 coupling to β-arrestin. A) Schematic of the BRET based β-arrestin recruitment assay B) Dose response profile evaluating recruitment of β-arrestin using BRET-based recruitment assay that measures association of yPET-β-arrestin-2 with Rluc8-tagged receptor: GPR158 or kOR used as a positive control. Constructs were co-transfected into HEK293 cells stimulated with increasing concentration of U50488 or glycine. Data shown fold over basal of 4 independent experiments performed in triplicate mean±s.e.m.
The inventors further tested whether glycine or taurine could induce GPR158 to activate G proteins as canonical GPCRs do. In these experiments, the inventors used a reverse strategy where the inventors monitored generation of the BRET signal in the same assay (FIG. 5A).
Cells were co-transfected with Rluc-tagged receptors and YPet-β-arrestin2. Coelenterazine H were diluted at 5 μM in BRET buffer and added to cells with glycine or U50488 as indicated. BRET ratio was determined by calculating the ratio of the light emitted by the Venus (535 nm with a 30 nm band path width) over the light emitted by RLuc (475 nm with a 30 nm band path width) in order to measure an increase of the signal when β-arrestin is recruited. BRET ratio was calculated and fold over basal response was plotted as a function of kOR condition.

NCC(=O)O [glycine]
β-arrestin recruitment to GPR158: no significant response
